Drawing on PubChem BioAssay AID256 (DTP/NCI, 2004), this text covers T/C for 20 compounds.

This assay concerns CD2F1 mice, L1210 leukemia ip, survival T/C. Kind of assay: NCI In Vivo Anticancer Drug Screen. Data for tumor model L1210 Leukemia (intraperitoneal) in CD2F1 (CDF1) mice. As to conditions: higher = longer survival. Summed up:
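Antitumor effect is scored in animals hosting a serially transplanted tumor. Values compare compound-dosed animals against vehicle-only controls as a simple quotient.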

Setting [1] is: endpoint: mean survival time, dose: 100.0 mg/kg/injection, schedule: Q04DX003 (ip), vehicle: saline with Tween-80.
The mark [2] stands for this setting: endpoint: mean survival time, dose: 200.0 mg/kg/injection, schedule: Q04DX003 (ip), vehicle: saline with Tween-80.
Setting [3] is: endpoint: mean survival time, dose: 400.0 mg/kg/injection, schedule: Q04DX003 (ip), vehicle: saline with Tween-80.
Where [4] appears, read: endpoint: mean survival time, dose: 100.0 mg/kg/injection, schedule: Q04DX002 (ip), vehicle: saline with Tween-80.
Where [5] appears, read: endpoint: mean survival time, dose: 200.0 mg/kg/injection, schedule: Q04DX002 (ip), vehicle: saline with Tween-80.
The mark [6] stands for this setting: endpoint: mean survival time, dose: 400.0 mg/kg/injection, schedule: Q04DX002 (ip), vehicle: saline with Tween-80.
Where [7] appears, read: endpoint: mean survival time, dose: 50.0 mg/kg/injection, schedule: Q01DX009 (ip), vehicle: saline with Tween-80.
The mark [8] stands for this setting: endpoint: mean survival time, dose: 100.0 mg/kg/injection, schedule: Q01DX009 (ip), vehicle: saline with Tween-80.
Where [9] appears, read: endpoint: mean survival time, dose: 200.0 mg/kg/injection, schedule: Q01DX009 (ip), vehicle: saline with Tween-80.
[10] abbreviates: endpoint: mean survival time, dose: 400.0 mg/kg/injection, schedule: Q01DX009 (ip), vehicle: saline with Tween-80.

The structures appear in SMILES notation. Several values for one entry are separate records, joined by “and”; a condition that tells them apart may be missing. Equal entries are not always repeated. Inconclusive results and toxic doses are left out.

Regarding `C/C=C(\C)C(=O)OC1C(C)C2(O)C(C=C(CO)CC3(O)C(=O)C(C)=CC32)C2C(C)(C)C12OC(=O)CCCCCCCCC` (stereo not given), the T/C by setting is: (endpoint: mean survival time, dose: 125.0 micrograms/kg/injection, schedule: Q01DX009 (ip), vehicle: saline + alcohol) 90 % of control; (endpoint: mean survival time, dose: 250.0 micrograms/kg/injection, schedule: Q01DX009 (ip), vehicle: saline + alcohol) 95 % of control.

On to `C[n+]1cccc(C=O)c1`, for which the T/C is, setting by setting: (endpoint: mean survival time, dose: 100.0 mg/kg/injection, schedule: Q01DX001 (ip), vehicle: saline) 103 % of control; (endpoint: mean survival time, dose: 200.0 mg/kg/injection, schedule: Q01DX001 (ip), vehicle: saline) 105 % of control; (endpoint: mean survival time, dose: 400.0 mg/kg/injection, schedule: Q01DX001 (ip), vehicle: saline) 108 % of control.

With `CCC1(O)C(=O)OCc2c1cc1n(c2=O)Cc2cc3ccc(C#N)cc3nc2-1` (stereo not given), the T/C (endpoint: median survival time, dose: 2.5 mg/kg/injection, schedule: Q04DX002 (ip), vehicle: saline with Tween-80) was 152 % of control; the T/C (endpoint: median survival time, dose: 5.0 mg/kg/injection, schedule: Q04DX002 (ip), vehicle: saline with Tween-80) is 196 % of control; the T/C (endpoint: median survival time, dose: 10.0 mg/kg/injection, schedule: Q04DX002 (ip), vehicle: saline with Tween-80) was 250 % of control and 365 % of control; the T/C (endpoint: median survival time, dose: 20.0 mg/kg/injection, schedule: Q04DX002 (ip), vehicle: saline with Tween-80) is 101 % of control and 103 % of control.

`CCC1(O)C(=O)OCc2c1cc1n(c2=O)Cc2cc3cc(N)ccc3nc2-1` (stereo not given): the T/C (endpoint: median survival time, dose: 1.35 mg/kg/injection, schedule: Q01DX005 (ip), vehicle: saline) was 243 % of control; the T/C (endpoint: median survival time, dose: 1.87 mg/kg/injection, schedule: Q01DX005 (ip), vehicle: saline) was 188 % of control; the T/C (endpoint: median survival time, dose: 2.0 mg/kg/injection, schedule: Q04DX002 (ip), vehicle: saline) was 158 % of control; the T/C (endpoint: median survival time, dose: 2.25 mg/kg/injection, schedule: Q01DX005 (ip), vehicle: saline) was 243 % of control; the T/C (endpoint: median survival time, dose: 3.75 mg/kg/injection, schedule: Q01DX005 (ip), vehicle: saline) is 271 % of control and 365 % of control; the T/C (endpoint: median survival time, dose: 4.0 mg/kg/injection, schedule: Q04DX002 (ip), vehicle: saline) was 157 % of control and 170 % of control. Besides, the T/C runs as follows: (endpoint: median survival time, dose: 6.25 mg/kg/injection, schedule: Q01DX005 (ip), vehicle: saline) 90 % of control; (endpoint: median survival time, dose: 7.5 mg/kg/injection, schedule: Q01DX005 (ip), vehicle: saline) 123 % of control; (endpoint: median survival time, dose: 8.0 mg/kg/injection, schedule: Q04DX002 (ip), vehicle: saline) 256 % of control and 329 % of control; (endpoint: median survival time, dose: 15.0 mg/kg/injection, schedule: Q01DX005 (ip), vehicle: saline) 100 % of control; (endpoint: median survival time, dose: 16.0 mg/kg/injection, schedule: Q04DX002 (ip), vehicle: saline) 243 % of control and 329 % of control; (endpoint: median survival time, dose: 30.0 mg/kg/injection, schedule: Q01DX005 (ip), vehicle: saline) 88 % of control. Besides, under “endpoint: median survival time, dose: 32.0 mg/kg/injection, schedule: Q04DX002 (ip), vehicle: saline”, the T/C was 268 % of control.

Consider `CCCCCCCCCCCCCCCCCC[N+](CC)(CC)CC`, for which the T/C reads like this: (endpoint: mean survival time, dose: 0.75 mg/kg/injection, schedule: Q01DX001 (ip), vehicle: Klucel (hydroxypropylcellulose) (HPC)) 91 % of control; (endpoint: mean survival time, dose: 1.5 mg/kg/injection, schedule: Q01DX001 (ip), vehicle: Klucel (hydroxypropylcellulose) (HPC)) 108 % of control; (endpoint: mean survival time, dose: 3.0 mg/kg/injection, schedule: Q01DX001 (ip), vehicle: Klucel (hydroxypropylcellulose) (HPC)) 100 % of control.

With `S=C(NCCc1ccccc1)Nc1ccccc1`, the T/C was 97 % of control under setting [1], 95 % of control under setting [2] and 95 % of control under setting [3].

On to `C=CC1CC(=O)N1` (stereo not given), for which the T/C reads like this: (endpoint: mean survival time, dose: 75.0 mg/kg/injection, schedule: Q01DX009 (ip), vehicle: saline) 102 % of control; (endpoint: mean survival time, dose: 75.0 mg/kg/injection, schedule: Q04DX003 (ip), vehicle: saline) 97 % of control; (endpoint: mean survival time, dose: 150.0 mg/kg/injection, schedule: Q01DX009 (ip), vehicle: saline) 103 % of control; (endpoint: mean survival time, dose: 150.0 mg/kg/injection, schedule: Q04DX003 (ip), vehicle: saline) 101 % of control; (endpoint: mean survival time, dose: 300.0 mg/kg/injection, schedule: Q01DX009 (ip), vehicle: saline) 103 % of control; (endpoint: mean survival time, dose: 300.0 mg/kg/injection, schedule: Q04DX003 (ip), vehicle: saline) 95 % of control.

With `CCCCCCCCCCCC(=O)CCCCC`, the T/C (endpoint: mean survival time, dose: 100.0 mg/kg/injection, schedule: Q04DX003 (ip), vehicle: other) is 96 % of control; the T/C (endpoint: mean survival time, dose: 200.0 mg/kg/injection, schedule: Q04DX003 (ip), vehicle: other) was 97 % of control; the T/C (endpoint: mean survival time, dose: 400.0 mg/kg/injection, schedule: Q04DX003 (ip), vehicle: other) is 97 % of control.

As to `CC1C(=O)OC2C1CCC1(C)C=CC(=O)C(C)(Cl)C21O` (stereo not given), the T/C reads like this: under setting [4], 100 % of control; under setting [5], 100 % of control; under setting [6], 91 % of control and 87 % of control.

Turning to `CC(=O)Nc1nc(Cl)nc2c1ncn2Cc1ccccc1`, the T/C runs as follows: (endpoint: mean survival time, dose: 75.0 mg/kg/injection, schedule: Q01DX001 (ip), vehicle: other) 95 % of control; (endpoint: mean survival time, dose: 150.0 mg/kg/injection, schedule: Q01DX001 (ip), vehicle: other) 96 % of control.

Regarding `O=C1C2(CCCCC2)C(=O)C12CCCCC2`, the T/C is, setting by setting: under setting [7], 96 % of control; under setting [8], 110 % of control; under setting [9], 93 % of control.

In the case of `Fc1c(F)c(F)c(-c2c(F)c(F)c(-c3c(F)c(F)c(-c4c(F)c(F)c(F)c(F)c4F)c(F)c3F)c(F)c2F)c(F)c1F`, the T/C is, setting by setting: under setting [8], 96 % of control; under setting [9], 88 % of control.

Regarding `O=c1c2ccccc2c2nccc3c4ccccc4n1c32`, the T/C under setting [8] is 103 % of control; the T/C under setting [1] was 102 % of control; the T/C under setting [9] is 105 % of control; the T/C under setting [2] is 107 % of control; the T/C under setting [10] is 100 % of control; the T/C under setting [3] was 107 % of control.

In the case of `CCOC(=O)C/C(C)=C/c1ccccc1` (tested in a mixture with another compound), the T/C is 95 % of control (endpoint: mean survival time, dose: 100.0 mg/kg/injection, schedule: Q01DX001 (ip), vehicle: saline with Tween-80); 98 % of control under setting [4]; 87 % of control (endpoint: mean survival time, dose: 200.0 mg/kg/injection, schedule: Q01DX001 (ip), vehicle: saline with Tween-80); 90 % of control under setting [5]; 94 % of control (endpoint: mean survival time, dose: 400.0 mg/kg/injection, schedule: Q01DX001 (ip), vehicle: saline with Tween-80); 110 % of control under setting [6].

With `CCCCN(C)N=Nc1cccnc1`, the T/C is 90 % of control (endpoint: mean survival time, dose: 13.0 mg/kg/injection, schedule: Q01DX009 (ip), vehicle: saline); 109 % of control (endpoint: mean survival time, dose: 19.0 mg/kg/injection, schedule: Q01DX009 (ip), vehicle: saline); 109 % of control (endpoint: mean survival time, dose: 28.0 mg/kg/injection, schedule: Q01DX009 (ip), vehicle: saline); 92 % of control (endpoint: mean survival time, dose: 42.0 mg/kg/injection, schedule: Q01DX009 (ip), vehicle: saline).

Take `NNC(=O)c1cccc(C(=O)NN)c1`: the T/C is, setting by setting: under setting [8], 96 % of control; under setting [1], 93 % of control; under setting [9], 93 % of control; under setting [2], 95 % of control; under setting [10], 98 % of control; under setting [3], 92 % of control.

Consider `C/C(C#N)=C/c1ccccc1`, for which the T/C was 108 % of control (endpoint: mean survival time, dose: 50.0 mg/kg/injection, schedule: Q01DX009 (ip), vehicle: saline sonified); 105 % of control (endpoint: mean survival time, dose: 100.0 mg/kg/injection, schedule: Q01DX009 (ip), vehicle: saline sonified); 100 % of control under setting [1]; 105 % of control (endpoint: mean survival time, dose: 200.0 mg/kg/injection, schedule: Q01DX009 (ip), vehicle: saline sonified); 105 % of control under setting [2].

On to `CC(=O)SCC1C(=O)n2c(cc3ccccc32)C(=O)N1C` (stereo not given), for which the T/C runs as follows: (endpoint: mean survival time, dose: 50.0 mg/kg/injection, schedule: Q04DX002 (ip), vehicle: saline with Tween-80) 89 % of control; under setting [4], 96 % of control; under setting [5], 101 % of control.

Take `O=COC1CC2CC1C1CCCC21` (stereo not given): the T/C reads like this: under setting [7], 95 % of control; under setting [8], 93 % of control; under setting [9], 97 % of control.

Turning to `Brc1ccc(C[N+]23CN4CN(CN(C4)C2)C3)cc1`, the T/C runs as follows: (endpoint: mean survival time, dose: 12.5 mg/kg/injection, schedule: Q01DX009 (ip), vehicle: saline with Tween-80) 102 % of control; (endpoint: mean survival time, dose: 25.0 mg/kg/injection, schedule: Q01DX009 (ip), vehicle: saline with Tween-80) 102 % of control; under setting [7], 97 % of control; under setting [8], 96 % of control; under setting [9], 94 % of control.
